Key:
[1] = molecular target: T1, human orexin 2 receptor (hOX2R) (Homo sapiens, UniProt O43614); assay: Measurement of orexin antagonist activity (intracellular Ca2+ fluorescence, FDSS) in CHO cells expressing hOX2R; format: cell-based; conditions: CHO cells forcibly expressing hOX2R; ligand (two-amino-acid-substituted human orexin-A) 3 nM; Fluo 4-AM; read-out: IC50 value OX2
T1 construct: expressed in transfected cells; host or cells: Chinese hamster ovary (CHO) cells
T1 sequence (O43614 1-444): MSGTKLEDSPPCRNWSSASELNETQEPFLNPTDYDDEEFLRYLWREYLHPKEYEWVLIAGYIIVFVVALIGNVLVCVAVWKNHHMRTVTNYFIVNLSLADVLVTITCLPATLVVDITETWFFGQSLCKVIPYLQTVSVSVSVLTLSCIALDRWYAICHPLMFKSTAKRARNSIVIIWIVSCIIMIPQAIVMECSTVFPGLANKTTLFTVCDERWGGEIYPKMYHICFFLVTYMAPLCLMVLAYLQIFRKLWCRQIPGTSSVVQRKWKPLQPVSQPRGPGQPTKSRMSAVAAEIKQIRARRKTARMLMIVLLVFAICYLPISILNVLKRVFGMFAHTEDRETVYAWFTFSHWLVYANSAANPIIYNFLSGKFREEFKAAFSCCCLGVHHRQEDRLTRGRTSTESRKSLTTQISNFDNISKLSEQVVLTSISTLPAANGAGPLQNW
Description: (§1) The antagonist activity of a test compound against the human orexin 1 receptor (hOX1R) or orexin 2 receptor (hOX2R) was measured by the method described in the document (Toshikatsu Okumura et al., Biochemical and Biophysical Research Communications, 280, 976-981, 2001) with appropriate modification. Chinese hamster ovary (CHO) cells forcibly expressing hOX1R or hOX2R were seeded into each well of a 96-well Black clear bottom plate (Nunc A/S) in the amount of 20000 cells per well and were cultured in a Ham's F-12 medium (Invitrogen, Inc.) containing 0.1 mM MEM non-essential amino acids (Invitrogen, Inc.), 0.5 mg/mL G418 (Invitrogen, Inc.), and 10% fetal calf serum (Invitrogen, Inc.) at 37° C. in 5% CO2 for 16 hours. The medium was removed, and then added to each well was 100 μL of an assay buffer (pH 7.4) containing 0.5 μM Fluo 4-AM ester (Dojindo Laboratories), wherein the buffer was composed of 25 mM HEPES (Dojindo Laboratories), a Hanks' balanced salt solution (Invitrogen, Inc.), 0.1% bovine serum albumin (Sigma-Aldrich Co., LLC.), 2.5 mM probenecid (Sigma-Aldrich Co., LLC.), and 200 μg/mL Amaranth (Sigma-Aldrich Co., LLC.), followed by incubation at 37° C. in 5% CO2 for 60 min. The assay buffer containing Fluo 4-AM ester was removed, and then 150 μL of an assay buffer solution containing 10 mM of the test compound dissolved in dimethyl sulfoxide was added to each well, followed by incubation for 30 min.
(§2) A peptide (Pyr-[…]NH2: Peptide Institute, Inc.), which is a ligand having substitution of two amino acids in human orexin-A, was diluted with an assay buffer to a final concentration of 300 pM for hOX1R and to a final concentration of 3 nM for hOX2R. The reaction was started by adding 50 μL of this ligand solution to each well. The reaction was monitored by measuring the fluorescence of each well at each 1 second for 3 min with a Functional Drug Screening System (FDSS manufactured by Hamamatsu Photonics K.K.), and the antagonist activity was determined based on the maximum fluorescence value as an index of the intracellular Ca^2+ concentration. The antagonist activity of a test compound was calculated by assuming that the fluorescence value of the well containing only a dilution buffer was 100% and that the fluorescence value of the well containing a buffer not containing the ligand or any test compound was 0%. The 50% inhibitory concentration (IC50 value) of a test compound was determined from fluorescence values at various concentrations of the test compound.

[2] = molecular target: T2, human orexin 1 receptor (hOX1R) (Homo sapiens, UniProt O43613); assay: Measurement of orexin antagonist activity (intracellular Ca2+ fluorescence, FDSS) in CHO cells expressing hOX1R; format: cell-based; conditions: CHO cells forcibly expressing hOX1R; ligand (two-amino-acid-substituted human orexin-A) 300 pM; Fluo 4-AM; read-out: IC50 value OX1
T2 construct: expressed in transfected cells; host or cells: Chinese hamster ovary (CHO) cells
T2 sequence (O43613 1-425): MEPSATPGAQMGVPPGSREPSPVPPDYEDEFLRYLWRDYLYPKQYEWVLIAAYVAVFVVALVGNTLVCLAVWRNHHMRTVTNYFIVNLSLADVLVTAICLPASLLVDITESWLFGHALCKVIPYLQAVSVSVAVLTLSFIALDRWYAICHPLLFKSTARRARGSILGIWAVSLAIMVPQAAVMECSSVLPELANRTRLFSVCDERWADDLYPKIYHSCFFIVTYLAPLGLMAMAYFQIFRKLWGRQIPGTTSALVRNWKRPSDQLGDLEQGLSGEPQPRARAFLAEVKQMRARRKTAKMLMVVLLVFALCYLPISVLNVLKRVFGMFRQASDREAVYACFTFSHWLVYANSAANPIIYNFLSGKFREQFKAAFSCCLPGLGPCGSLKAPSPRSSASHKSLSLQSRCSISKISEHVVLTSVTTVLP
Description: as §1, §2

Row | IC50 [1] [nM] | IC50 [2] [nM] | Structure (SMILES)
1 | 6.3 | 1.6 | CCN(CCc1ccn(-c2ccc(F)cn2)n1)C(=O)c1c(F)cccc1-n1nccn1 [Example 18, N-ethyl-2-fluoro-N-{2-[1-(5-fluoropyridin-2-yl)-1H-pyrazol-3-yl]ethyl}-2-(2H-1,2,3-triazol-2-yl) benzamide]
2 | 380 | 61.1 | CCN(CCc1ccn(-c2cc(C(F)(F)F)ccn2)n1)C(=O)c1ccccc1-n1nccn1 [Example 26, N-ethyl-2-(2H-1,2,3-triazol-2-yl)-N-{2-{1-[4-(trifluoromethyl)pyridin-2-yl]-1H-pyrazol-3-yl}ethyl}benzamide]
3 | 69.8 | 61 | CCN(CCc1noc(-c2ccc(F)c(F)c2)n1)C(=O)c1cc(F)ccc1-c1ncccn1 [Example 43, N-{2-[5-(3,4-difluorophenyl)-1,2,4-oxadiazol-3-yl]ethyl}-N-ethyl-5-fluoro-2-(pyrimidin-2-yl) benzamide]
4 | 2530 | 1190 | CN(CCc1noc(-c2ccc(F)cn2)n1)C(=O)c1ccccc1-n1nccn1 [Example 33, N-{2-[5-(5-fluoropyridin-2-yl)-1,2,4-oxadiazol-3-yl]ethyl}-N-methyl-2-(2H-1,2,3-triazol-2-yl) benzamide]
5 | 8.5 | 0.7 | Cc1ccc(-n2nccn2)c(C(=O)N(C)CCc2cnn(-c3ccc(F)cn3)c2)c1 [Example 2, N-{2-[1-(5-Fluoropyridin-2-yl)-1H-pyrazol-4-yl]ethyl}-N,5-dimethyl-2-(2H-1,2,3-triazol-2-yl)benzamide]
6 | 24.8 | 17.8 | CCN(CCc1ccn(-c2cccc(C(F)(F)F)n2)n1)C(=O)c1ccccc1-n1nccn1 [Example 24, N-ethyl-2-(2H-1,2,3-triazol-2-yl)-N-(2-{1-[6-(trifluoromethyl)pyridin-2-yl]-1H-pyrazol-3-yl}ethyl)benzamide]
7 | 119 | 83.4 | Cc1ccc(-n2nccn2)c(C(=O)N(C)CCc2noc(-c3ccc(F)cn3)n2)c1 [Example 34, N-{2-[5-(5-fluoropyridin-2-yl)-1,2,4-oxadiazol-3-yl]ethyl}-N,5-dimethyl-2-(2H-1,2,3-triazol-2-yl)benzamide]
8 | 21.3 | 1.8 | CCN(CCc1cc(-c2ccc(F)cn2)on1)C(=O)c1cc(C)ccc1-n1nccn1 [Example 10, N-Ethyl-N-{2-[5-(5-fluoropyridin-2-yl)-1,2-oxazol-3-yl]ethyl}-5-methyl-2-(2H-1,2,3-triazol-2-yl)benzamide]
9 | 2 | 1.1 | CCN(CCc1noc(-c2ccc(F)c(F)c2)n1)C(=O)c1cc(C)ccc1-n1nccn1 [Example 37, N-ethyl-N-{2-[5-(3,4-difluorophenyl)-1,2,4-oxadiazol-3-yl]ethyl}-5-methyl-2-(2H-1,2,3-triazol-2-yl)benzamide]
10 | 26.4 | 17 | CCN(CCc1cc(-c2ccc(F)cn2)no1)C(=O)c1cc(C)ccc1-n1nccn1 [Example 11, N-Ethyl-N-{2-[3-(5-fluoropyridin-2-yl)-1,2-oxazol-5-yl]ethyl}-5-methyl-2-(2H-1,2,3-triazol-2-yl)benzamide]
11 | 8 | 2.1 | Cc1ccc(-n2nccn2)c(C(=O)N(C)CCc2ccn(-c3ccc(F)cn3)n2)c1 [Example 5, N-{2-[1-(5-Fluoropyridin-2-yl)-1H-pyrazol-3-yl]ethyl}-N,5-dimethyl-2-(2H-1,2,3-triazol-2-yl)benzamide]
12 | 10.3 | 3 | CCN(CCc1ccn(-c2cccc(C)n2)n1)C(=O)c1ccccc1-n1nccn1 [Example 23, N-ethyl-N-{2-[1-(6-methylpyridin-2-yl)-1H-pyrazol-3-yl]ethyl}-2-(2H-1,2,3-triazol-2-yl) benzamide]
13 | 3.3 | 1.6 | CCN(CCc1ccn(-c2ccc(F)c(F)c2)n1)C(=O)c1ccccc1-n1nccn1 [Example 25, N-{2-[1-(3,4-difluorophenyl)-1H-pyrazol-3-yl]ethyl}-N-ethyl-2-(2H-1,2,3-triazol-2-yl) benzamide]
14 | 13.2 | 1.7 | CCN(CCc1ccn(-c2ccc(F)cn2)n1)C(=O)c1cc(F)ccc1-c1ncccn1 [Example 20, N-ethyl-5-fluoro-N-{2-[1-(5-fluoropyridin-2-yl)-1H-pyrazol-3-yl]ethyl}-2-(pyrimidin-2-yl) benzamide]
15 | 50.8 | 11.6 | CCN(CCc1ccn(-c2ccc(F)cn2)n1)C(=O)c1c(F)cccc1-c1ncccn1 [Example 21, N-ethyl-2-fluoro-N-{2-[1-(5-fluoropyridin-2-yl)-1H-pyrazol-3-yl]ethyl}-6-(pyrimidin-2-yl) benzamide]
16 | 159 | 163 | CCN(CCc1noc(-c2ccc(F)cn2)n1)C(=O)c1cc(C)ccc1-c1ncccn1 [Example 45, N-ethyl-N-{2-[5-(5-fluoropyridin-2-yl)-1,2,4-oxadiazol-3-yl]ethyl}-5-methyl-2-(pyrimidin-2-yl)benzamide]
17 | 18.4 | 1.1 | CCN(CCc1ccn(-c2ccc(F)cc2)n1)C(=O)c1cc(F)ccc1-c1ncccn1 [Example 27, N-ethyl-5-fluoro-N-{2-[1-(4-fluorophenyl)-1H-pyrazol-3-yl]ethyl}-2-(pyrimidin-2-yl) benzamide]
18 | 13.9 | 2.4 | Cc1ccc(-n2nccn2)c(C(=O)N(C)CCc2noc(-c3ccc(F)cc3)n2)c1 [Example 35, N-{2-[5-(4-fluorophenyl)-1,2,4-oxadiazol-3-yl]ethyl}-N,5-dimethyl-2-(2H-1,2,3-triazol-2-yl) benzamide]
19 | 3.8 | 1.8 | CCN(CCc1ccn(-c2ccc(F)cn2)n1)C(=O)c1cc(C)ccc1-n1nccn1 [Example 8, N-Ethyl-N-{2-[1-(5-fluoropyridin-2-yl)-1H-pyrazol-3-yl]ethyl}-5-methyl-2-(2H-1,2,3-triazol-2-yl)benzamide]
20 | 13.2 | 1.9 | CCN(CCc1ccn(-c2ccc(F)cc2)n1)C(=O)c1ccccc1-c1ncccn1 [Example 30, N-ethyl-N-{2-[1-(4-fluorophenyl)-1H-pyrazol-3-yl]ethyl}-2-(pyrimidine-2-yl)benzamide]
21 | 7.4 | 0.9 | CCN(CCc1ccn(-c2ccc(F)cn2)n1)C(=O)c1ccccc1-c1ncccn1 [Example 19, N-ethyl-N-{2-[1-(5-fluoropyridin-2-yl)-1H-pyrazol-3-yl]ethyl}-2-(pyrimidin-2-yl) benzamide]
22 | 13.7 | 7.1 | CCN(CCc1ccn(-c2ccc(F)cn2)n1)C(=O)c1cc(C)ccc1-c1ncccn1 [Example 6, N-Ethyl-N-{2-[1-(5-fluoropyridin-2-yl)-1H-pyrazol-3-yl]ethyl}-5-methyl-2-(pyrimidin-2-yl)benzamide]
23 | 2.4 | 0.5 | CCN(CCc1ccn(-c2ccc(F)cn2)n1)C(=O)c1ccccc1-n1nccn1 [Example 4, N-Ethyl-N-{2-[1-(5-fluoropyridin-2-yl)-1H-pyrazol-3-yl]ethyl}-2-(2H-1,2,3-triazol-2-yl)benzamide]
